Assay results: patent publication US10206394B2, “Herbicidal compounds” (Syngenta Participations AG, priority 2014, dated 2019)
Where two headings read alike, the source gives them in different places.

Experiments:
Test in all cases: Glasshouse assay for herbicidal activity (pre- and post-emergence), percentage phytotoxicity
Assay type in all cases: in vivo
[1] = tested on: Alopecurus myosuroides (ALOMY); settings: Alopecurus myosuroides
Procedure, shortened: (§1)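 Pot-grown, standard soil. PRE: spray 1 d post-sowing; POST: ~12 d. Glasshouse 24/18 °C (warm spp.) / 20/16 °C (cool spp.), 16 h light, 65% RH, watered 2×/day. Visual % damage, 20 DAA PRE, 15 DAA POST.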

Avena fatua (AVEFA) = settings: Avena fatua
Procedure, shortened: as §1

[2] = tested on: Echinochloa crus-galli (ECHCG); settings: Echinochloa crus-galli
Procedure, shortened: as §1

Lolium perenne (LOLPE) = settings: Lolium perenne
Procedure, shortened: as §1

[3] = post-emergence, 360 h, Rate 250 g/ha, post-emergence, assessed visually 15 DAA, 100%=total damage, 0%=no damage, read-out: Post-emergence herbicidal activity (percentage phytotoxicity) ALOMY POST
[4] = pre-emergence, 480 h, Rate 250 g/ha, pre-emergence, assessed visually 20 DAA, 100%=total damage, 0%=no damage, read-out: Pre-emergence herbicidal activity (percentage phytotoxicity) ALOMY PRE
[5] = post-emergence, 360 h, Rate 250 g/ha, post-emergence, assessed visually 15 DAA, 100%=total damage, 0%=no damage, read-out: Post-emergence herbicidal activity (percentage phytotoxicity) AVEFA POST
[6] = pre-emergence, 480 h, Rate 250 g/ha, pre-emergence, assessed visually 20 DAA, 100%=total damage, 0%=no damage, read-out: Pre-emergence herbicidal activity (percentage phytotoxicity) AVEFA PRE
[7] = post-emergence, 360 h, Rate 250 g/ha, post-emergence, assessed visually 15 DAA, 100%=total damage, 0%=no damage, read-out: Post-emergence herbicidal activity (percentage phytotoxicity) ECHCG POST
[8] = pre-emergence, 480 h, Rate 250 g/ha, pre-emergence, assessed visually 20 DAA, 100%=total damage, 0%=no damage, read-out: Pre-emergence herbicidal activity (percentage phytotoxicity) ECHCG PRE
[9] = post-emergence, 360 h, Rate 250 g/ha, post-emergence, assessed visually 15 DAA, 100%=total damage, 0%=no damage, read-out: Post-emergence herbicidal activity (percentage phytotoxicity) LOLPE POST
[10] = pre-emergence, 480 h, Rate 250 g/ha, pre-emergence, assessed visually 20 DAA, 100%=total damage, 0%=no damage, read-out: Pre-emergence herbicidal activity (percentage phytotoxicity) LOLPE PRE
[11] = post-emergence, 360 h, 250 g/ha, post-emergence, 15 DAA, visual assessment (100%=total damage, 0%=no damage), read-out: Post-emergence herbicidal activity (percentage phytotoxicity) ALOMY POST
[12] = pre-emergence, 480 h, 250 g/ha, pre-emergence, 20 DAA, visual assessment (100%=total damage, 0%=no damage), read-out: Pre-emergence herbicidal activity (percentage phytotoxicity) ALOMY PRE
[13] = post-emergence, 360 h, 250 g/ha, post-emergence, 15 DAA, visual assessment (100%=total damage, 0%=no damage), read-out: Post-emergence herbicidal activity (percentage phytotoxicity) AVEFA POST
[14] = pre-emergence, 480 h, 250 g/ha, pre-emergence, 20 DAA, visual assessment (100%=total damage, 0%=no damage), read-out: Pre-emergence herbicidal activity (percentage phytotoxicity) AVEFA PRE
[15] = post-emergence, 360 h, 250 g/ha, post-emergence, 15 DAA, visual assessment (100%=total damage, 0%=no damage), read-out: Post-emergence herbicidal activity (percentage phytotoxicity) ECHCG POST
[16] = pre-emergence, 480 h, 250 g/ha, pre-emergence, 20 DAA, visual assessment (100%=total damage, 0%=no damage), read-out: Pre-emergence herbicidal activity (percentage phytotoxicity) ECHCG PRE
[17] = post-emergence, 360 h, 250 g/ha, post-emergence, 15 DAA, visual assessment (100%=total damage, 0%=no damage), read-out: Post-emergence herbicidal activity (percentage phytotoxicity) LOLPE POST
[18] = pre-emergence, 480 h, 250 g/ha, pre-emergence, 20 DAA, visual assessment (100%=total damage, 0%=no damage), read-out: Pre-emergence herbicidal activity (percentage phytotoxicity) LOLPE PRE

| SMILES | pest or weed control at 250 g/ha [1, 3] [%] | pest or weed control at 250 g/ha [1, 4] [%] | pest or weed control at 250 g/ha (Avena fatua (AVEFA); [5]) [%] | pest or weed control at 250 g/ha (Avena fatua (AVEFA); [6]) [%] | pest or weed control at 250 g/ha [2, 7] [%] | pest or weed control at 250 g/ha [2, 8] [%] | pest or weed control at 250 g/ha (Lolium perenne (LOLPE); [9]) [%] | pest or weed control at 250 g/ha (Lolium perenne (LOLPE); [10]) [%] | pest or weed control at 250 g/ha [1, 11] [%] | pest or weed control at 250 g/ha [1, 12] [%] | pest or weed control at 250 g/ha (Avena fatua (AVEFA); [13]) [%] | pest or weed control at 250 g/ha (Avena fatua (AVEFA); [14]) [%] | pest or weed control at 250 g/ha [2, 15] [%] | pest or weed control at 250 g/ha [2, 16] [%] | pest or weed control at 250 g/ha (Lolium perenne (LOLPE); [17]) [%] | pest or weed control at 250 g/ha (Lolium perenne (LOLPE); [18]) [%] | further results |
| --- | --- | --- | --- | --- | --- | --- | --- | --- | --- | --- | --- | --- | --- | --- | --- | --- | --- |
| COc1ccc(CNC(=O)CC2CC(=O)C(c3c(C)cc(-c4ccc(C#N)cn4)cc3C)C2=O)cc1 (stereo not drawn) [Compound B324] |  |  |  |  |  |  |  |  |  |  |  |  |  |  |  |  | pest or weed control at 250 g/ha ([1]; post-emergence, 360 h, POST-emergence, rate 250 g/ha, visual score 15 DAA (100%=total damage, 0%=no damage), read-out: Post-emergence herbicidal activity (percentage phytotoxicity) ALOMY POST): 70%; pest or weed control at 250 g/ha ([1]; pre-emergence, 480 h, PRE-emergence, rate 250 g/ha, visual score 20 DAA (100%=total damage, 0%=no damage), read-out: Pre-emergence herbicidal activity (percentage phytotoxicity) ALOMY PRE): 30%; pest or weed control at 250 g/ha (Avena fatua (AVEFA); post-emergence, 360 h, POST-emergence, rate 250 g/ha, visual score 15 DAA (100%=total damage, 0%=no damage), read-out: Post-emergence herbicidal activity (percentage phytotoxicity) AVEFA POST): 90%; pest or weed control at 250 g/ha (Avena fatua (AVEFA); pre-emergence, 480 h, PRE-emergence, rate 250 g/ha, visual score 20 DAA (100%=total damage, 0%=no damage), read-out: Pre-emergence herbicidal activity (percentage phytotoxicity) AVEFA PRE): 0%; pest or weed control at 250 g/ha ([2]; post-emergence, 360 h, POST-emergence, rate 250 g/ha, visual score 15 DAA (100%=total damage, 0%=no damage), read-out: Post-emergence herbicidal activity (percentage phytotoxicity) ECHCG POST): 100%; pest or weed control at 250 g/ha ([2]; pre-emergence, 480 h, PRE-emergence, rate 250 g/ha, visual score 20 DAA (100%=total damage, 0%=no damage), read-out: Pre-emergence herbicidal activity (percentage phytotoxicity) ECHCG PRE): 30%; pest or weed control at 250 g/ha (Lolium perenne (LOLPE); post-emergence, 360 h, POST-emergence, rate 250 g/ha, visual score 15 DAA (100%=total damage, 0%=no damage), read-out: Post-emergence herbicidal activity (percentage phytotoxicity) LOLPE POST): 80%; pest or weed control at 250 g/ha (Lolium perenne (LOLPE); pre-emergence, 480 h, PRE-emergence, rate 250 g/ha, visual score 20 DAA (100%=total damage, 0%=no damage), read-out: Pre-emergence herbicidal activity (percentage phytotoxicity) LOLPE PRE): 60% |
| Cc1cc(-c2ccc(F)cc2)cc(C)c1C1C(=O)CC(CC(=O)NC(C)(C)C)C1=O (stereo not drawn) [Compound A36] | 90 | 100 | 100 | 100 | 100 | 100 | 90 | 100 |  |  |  |  |  |  |  |  |  |
| Cc1cc(C)c(C2C(=O)CC(CC(=O)N(C)CC(C)C)C2=O)c(C)c1 (stereo not drawn) [Compound A159] | 70 | 60 | 50 | 20 | 80 | 90 | 90 | 90 |  |  |  |  |  |  |  |  |  |
| CCCN(CC1CC1)C(=O)CC1CC(=O)C(c2c(C)cc(C)cc2C)C1=O (stereo not drawn) [Compound B79] |  |  |  |  |  |  |  |  | 60 | 60 | 10 | 0 | 60 | 80 | 80 | 80 |  |
| Cc1cc(-c2ncc(F)cn2)cc(C)c1C1C(=O)CC(CC(=O)NC2CCCC2)C1=O (stereo not drawn) [Compound B114] |  |  |  |  |  |  |  |  | 90 | 90 | 90 | 60 | 100 | 100 | 90 | 90 |  |
| C=Cc1cc(-c2ncc(F)cc2F)cc(C)c1C1C(=O)CC(CC(=O)NC(C)(C)C)C1=O (stereo not drawn) [Compound B382, N-tert-butyl-2-[3-[4-(3,5-difluoro-2-pyridyl)-2-methyl-6-vinyl-phenyl]-2,4-dioxo-cyclopentyl]acetamide] |  |  |  |  |  |  |  |  |  |  |  |  |  |  |  |  | pest or weed control at 250 g/ha ([1]; post-emergence, 360 h, Rate 250 g/ha, post-emergence, visual assessment 15 DAA, 100%=total damage, 0%=no damage, read-out: Post-emergence herbicidal activity (percentage phytotoxicity) ALOMY POST): 100%; pest or weed control at 250 g/ha ([1]; pre-emergence, 480 h, Rate 250 g/ha, pre-emergence, visual assessment 20 DAA, 100%=total damage, 0%=no damage, read-out: Pre-emergence herbicidal activity (percentage phytotoxicity) ALOMY PRE): 60%; pest or weed control at 250 g/ha (Avena fatua (AVEFA); post-emergence, 360 h, Rate 250 g/ha, post-emergence, visual assessment 15 DAA, 100%=total damage, 0%=no damage, read-out: Post-emergence herbicidal activity (percentage phytotoxicity) AVEFA POST): 100%; pest or weed control at 250 g/ha (Avena fatua (AVEFA); pre-emergence, 480 h, Rate 250 g/ha, pre-emergence, visual assessment 20 DAA, 100%=total damage, 0%=no damage, read-out: Pre-emergence herbicidal activity (percentage phytotoxicity) AVEFA PRE): 40%; pest or weed control at 250 g/ha ([2]; post-emergence, 360 h, Rate 250 g/ha, post-emergence, visual assessment 15 DAA, 100%=total damage, 0%=no damage, read-out: Post-emergence herbicidal activity (percentage phytotoxicity) ECHCG POST): 100%; pest or weed control at 250 g/ha ([2]; pre-emergence, 480 h, Rate 250 g/ha, pre-emergence, visual assessment 20 DAA, 100%=total damage, 0%=no damage, read-out: Pre-emergence herbicidal activity (percentage phytotoxicity) ECHCG PRE): 60%; pest or weed control at 250 g/ha (Lolium perenne (LOLPE); post-emergence, 360 h, Rate 250 g/ha, post-emergence, visual assessment 15 DAA, 100%=total damage, 0%=no damage, read-out: Post-emergence herbicidal activity (percentage phytotoxicity) LOLPE POST): 100%; pest or weed control at 250 g/ha (Lolium perenne (LOLPE); pre-emergence, 480 h, Rate 250 g/ha, pre-emergence, visual assessment 20 DAA, 100%=total damage, 0%=no damage, read-out: Pre-emergence herbicidal activity (percentage phytotoxicity) LOLPE PRE): 60% |
